Test results from the supplement of paper PMC10307832.

compound: CCn1c(-c2nonc2N)nc2c(C#CC(C)(C)O)ncc(OC[C@H]3CCCNC3)c21 + CC(C)C[C@H](NC(=O)[C@H](Cc1ccccc1)NC(=O)c1cnccn1)B(O)O [Bortezomib] (partner 0.002 µM); test: relative viability (nuclei count vs DMSO), 5 days (fraction); higher = more cells survive; conditions: first compound 0.01 µM
Procedure, shortened: (§1)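 Cells from lung cancer lines were seeded into 1536-well plates and, one day later, dosed by pin tool. Treatments were either a single drug or a fixed dose of an anchor drug with five library-drug doses (not always all listed) in √10 steps. After 5 days, nuclei were stained in a one-step fixation (final 0.05% Triton X-100, 1% formaldehyde, 1 ug/ml Hoechst) and counted on 4× images, and relative viability is the treated-to-vehicle nuclei ratio, as the median of duplicate plates.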

Row | Cell Line | relative viability
1 | EKVX | 1.01
2 | LC-2-ad | 0.986
3 | NCI-H1975 | 0.379
4 | RERF-LC-KJ | 0.997
5 | NCI-H650 | 0.679
6 | PC-3 [JPC-3] | 0.82

same assay, conditions: first compound 0.03162 µM

Row | Cell Line | relative viability
7 | EKVX | 0.862
8 | LC-2-ad | 0.993
9 | NCI-H1975 | 0.351
10 | RERF-LC-KJ | 1.11
11 | NCI-H650 | 0.604
12 | PC-3 [JPC-3] | 0.852

same assay, conditions: first compound 0.1 µM

Row | Cell Line | relative viability
13 | EKVX | 1.15
14 | LC-2-ad | 1.03
15 | NCI-H1975 | 0.438
16 | RERF-LC-KJ | 1.06
17 | NCI-H650 | 0.759
18 | PC-3 [JPC-3] | 0.796

same assay, conditions: first compound 0.3162 µM

Row | Cell Line | relative viability
19 | EKVX | 0.994
20 | LC-2-ad | 0.977
21 | NCI-H1975 | 0.314
22 | RERF-LC-KJ | 0.974
23 | NCI-H650 | 0.758
24 | PC-3 [JPC-3] | 0.781

same assay, conditions: first compound 1 µM

Row | Cell Line | relative viability
25 | EKVX | 0.965
26 | LC-2-ad | 0.968
27 | NCI-H1975 | 0.289
28 | RERF-LC-KJ | 1.2
29 | NCI-H650 | 0.635
30 | PC-3 [JPC-3] | 0.808

compound: CCn1c(-c2nonc2N)nc2c(C#CC(C)(C)O)ncc(OC[C@H]3CCCNC3)c21 + Cc1nc(Nc2ncc(C(=O)Nc3c(C)cccc3Cl)s2)cc(N2CCN(CCO)CC2)n1 [Dasatinib] (partner 0.075 µM); test: as above; conditions: first compound 0.01 µM
Procedure, shortened: as §1

Row | Cell Line | relative viability
31 | EKVX | 0.508
32 | LC-2-ad | 0.384
33 | NCI-H1975 | 0.355
34 | RERF-LC-KJ | 0.708
35 | NCI-H650 | 0.44
36 | PC-3 [JPC-3] | 0.932

same assay, conditions: first compound 0.03162 µM

Row | Cell Line | relative viability
37 | EKVX | 0.629
38 | LC-2-ad | 0.487
39 | NCI-H1975 | 0.462
40 | RERF-LC-KJ | 0.815
41 | NCI-H650 | 0.392
42 | PC-3 [JPC-3] | 0.967

same assay, conditions: first compound 0.1 µM

Row | Cell Line | relative viability
43 | EKVX | 0.533
44 | LC-2-ad | 0.509
45 | NCI-H1975 | 0.412
46 | RERF-LC-KJ | 0.748
47 | NCI-H650 | 0.453
48 | PC-3 [JPC-3] | 1.02

same assay, conditions: first compound 0.3162 µM

Row | Cell Line | relative viability
49 | EKVX | 0.568
50 | LC-2-ad | 0.414
51 | NCI-H1975 | 0.376
52 | RERF-LC-KJ | 0.678
53 | NCI-H650 | 0.457
54 | PC-3 [JPC-3] | 0.986

same assay, conditions: first compound 1 µM

Row | Cell Line | relative viability
55 | EKVX | 0.525
56 | LC-2-ad | 0.641
57 | NCI-H1975 | 0.306
58 | RERF-LC-KJ | 0.565
59 | NCI-H650 | 0.448
60 | PC-3 [JPC-3] | 0.902

compound: CCOC1=CC=CC=C1N=NC2=C(NN(C2=O)C3=NC(=CS3)C4=CC=CC=C4)C [BAM7] + Nc1nc2[nH]cc(CCc3ccc(C(=O)N[C@@H](CCC(=O)O)C(=O)O)cc3)c2c(=O)[nH]1 [Pemetrexed] (partner 0.2 µM); test: as above; conditions: first compound 0.5 µM
Procedure, shortened: as §1

Row | Cell Line | relative viability
61 | EKVX | 0.425
62 | LC-2-ad | 0.297
63 | NCI-H1975 | 0.292
64 | RERF-LC-KJ | 0.518
65 | NCI-H650 | 1.03
66 | PC-3 [JPC-3] | 1.17

same assay, conditions: first compound 5 µM

Row | Cell Line | relative viability
67 | EKVX | 0.409
68 | LC-2-ad | 0.277
69 | NCI-H1975 | 0.276
70 | RERF-LC-KJ | 0.53
71 | NCI-H650 | 0.979
72 | PC-3 [JPC-3] | 1.13

same assay, conditions: first compound 15.81 µM

Row | Cell Line | relative viability
73 | EKVX | 0.349
74 | LC-2-ad | 0.293
75 | NCI-H1975 | 0.269
76 | RERF-LC-KJ | 0.464
77 | NCI-H650 | 0.987
78 | PC-3 [JPC-3] | 1.05

same assay, conditions: first compound 50 µM

Row | Cell Line | relative viability
79 | EKVX | 0.377
80 | LC-2-ad | 0.29
81 | NCI-H1975 | 0.288
82 | RERF-LC-KJ | 0.529
83 | NCI-H650 | 1
84 | PC-3 [JPC-3] | 1.08

compound: CCn1c(-c2nonc2N)nc2c(C#CC(C)(C)O)ncc(OC[C@H]3CCCNC3)c21 + O=C(CCCCCCC(=O)Nc1ccccc1)NO [Vorinostat] (partner 1 µM); test: as above; conditions: first compound 0.01 µM
Procedure, shortened: as §1

Row | Cell Line | relative viability
85 | EKVX | 0.705
86 | LC-2-ad | 0.736
87 | NCI-H1975 | 0.705
88 | RERF-LC-KJ | 0.665
89 | NCI-H650 | 0.435
90 | PC-3 [JPC-3] | 0.553

same assay, conditions: first compound 0.03162 µM

Row | Cell Line | relative viability
91 | EKVX | 0.765
92 | LC-2-ad | 0.715
93 | NCI-H1975 | 0.72
94 | RERF-LC-KJ | 0.595
95 | NCI-H650 | 0.384

same assay, conditions: first compound 0.1 µM

Row | Cell Line | relative viability
96 | EKVX | 0.689
97 | LC-2-ad | 0.712
98 | NCI-H1975 | 0.717
99 | RERF-LC-KJ | 0.684
100 | NCI-H650 | 0.393
101 | PC-3 [JPC-3] | 0.73

same assay, conditions: first compound 0.3162 µM

Row | Cell Line | relative viability
102 | EKVX | 0.726
103 | LC-2-ad | 0.659
104 | NCI-H1975 | 0.631
105 | RERF-LC-KJ | 0.574
106 | NCI-H650 | 0.423
107 | PC-3 [JPC-3] | 0.76

same assay, conditions: first compound 1 µM

Row | Cell Line | relative viability
108 | EKVX | 0.807
109 | LC-2-ad | 0.69
110 | NCI-H1975 | 0.684
111 | RERF-LC-KJ | 0.628
112 | NCI-H650 | 0.396
113 | PC-3 [JPC-3] | 0.751
